The values that follow come from US6811790B1, “Storage stable pesticide formulations containing azadirachtin” (E.I.D. Parry (India) Ltd., priority 2000, dated 2004).

Data set [1] is described as follows: Stability of azadirachtin A in a formulation, accelerated storage test and real time conditions. In kind it is physicochemical. As for the experimental part: The behavior of azadirachtin in real time and in accelerated conditions (especially at 54° C.) is quite different.
The conditions of data set [2]: 25 days at 29+/−1° C., cited from earlier work.

Where two headings read alike, the source gives them in different places.

Consider `C/C=C(\C)C(=O)O[C@H]1C[C@@H](OC(C)=O)[C@@]2(C(=O)OC)CO[C@H]3[C@@H](O)[C@@](C)([C@]45O[C@@]4(C)[C@@H]4C[C@H]5O[C@@H]5OC=C[C@@]54O)[C@H]4[C@]1(CO[C@]4(O)C(=O)OC)[C@@H]32` [azadirachtin A], for which the “degradation of azadirachtin A” value in data set [1] (accelerated storage test at 54° C., after 14 days) is given as 66%; in data set [2] (in ethanol and water), “about 80%”; in data set [2] (in methanol and acetone), 50%; in data set [2] (in methylene chloride, carbon tetrachloride and chloroform) it was 75-80%. Further, the “degradation of azadirachtin A per month” value in data set [1] (real time conditions at 20° C.) is listed as “approximately 0.9 % per month”. In addition, the “total degradation of azadirachtin A per year” value in data set [1] (real time conditions at 20° C.) came out at 11 % per year.
